Test results as given in ChEMBL document CHEMBL1201862, “PubChem BioAssay data set” (2004).
Activity calls are given as the source filed them.

Key:
[1] = target: T1, Calpain-2 catalytic subunit (Sus scrofa, UniProt P43367); test: m-calpain protease blockers, concentration series – biochemical, fluorogenic peptide substrate, dose response (AID 1420); type: functional
T1 sequence (P43367 whole entry): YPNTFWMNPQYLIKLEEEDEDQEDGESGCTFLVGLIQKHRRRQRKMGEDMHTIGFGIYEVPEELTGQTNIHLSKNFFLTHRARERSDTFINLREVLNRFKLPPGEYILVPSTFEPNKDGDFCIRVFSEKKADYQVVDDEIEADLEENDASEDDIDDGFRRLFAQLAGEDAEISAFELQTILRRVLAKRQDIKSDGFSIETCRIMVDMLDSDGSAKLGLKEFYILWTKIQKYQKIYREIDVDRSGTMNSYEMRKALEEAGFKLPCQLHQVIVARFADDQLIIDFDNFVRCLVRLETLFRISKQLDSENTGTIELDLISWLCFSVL

[2] = viability loss in THP-1 monocytes – THP-1 cells, cytotoxicity control for Vif-APOBEC3G degradation inhibitor project, dose response (AID 1117359); type: functional; conditions: THP-1
Nonstructural protein 1 = Nonstructural protein 1 (Influenza A virus, UniProt Q194T2); type: functional, Influenza A virus (A/California/07/2009(H1N1))
[3] = target: Sphingosine 1-phosphate receptor 1 (Homo sapiens, UniProt P21453); type: functional;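 note: Tango beta-arrestin reporter U2OS cells stimulated with S1P near its EC80; inhibitor potency meaning antagonism of receptor activation by the natural agonist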
[4] = target: T2, Type-1 angiotensin II receptor (Homo sapiens, UniProt P30556); test: agonist activity at AGTR1 – cell-based, uHTS hits, selectivity assay for APJ receptor agonist project, dose response (AID 488865); type: functional;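 note: beta-arrestin recruitment to AT1 measured by enzyme fragment complementation luminescence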
T2 sequence (P30556 whole entry): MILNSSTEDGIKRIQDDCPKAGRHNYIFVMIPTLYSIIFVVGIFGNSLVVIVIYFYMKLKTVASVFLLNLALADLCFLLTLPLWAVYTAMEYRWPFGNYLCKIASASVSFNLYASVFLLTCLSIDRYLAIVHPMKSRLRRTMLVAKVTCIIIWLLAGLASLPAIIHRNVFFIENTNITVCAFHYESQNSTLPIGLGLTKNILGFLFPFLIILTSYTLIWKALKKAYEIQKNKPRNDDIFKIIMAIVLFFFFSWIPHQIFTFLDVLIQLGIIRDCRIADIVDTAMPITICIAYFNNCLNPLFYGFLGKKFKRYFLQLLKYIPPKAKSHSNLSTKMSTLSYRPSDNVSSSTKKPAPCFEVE

[5] = target: Heat shock protein HSP 90-alpha (Homo sapiens, UniProt P07900); type: functional, organism-based
[6] = general mammalian cell viability loss – inhibitor set, cherry-pick, set 2, cytotoxicity control for miR-122 modulator project, dose response (AID 720697); type: functional, cell-based
[7] = system: Streptococcus sp. 'group A'; test: Streptococcus pyogenes SK(-)GAS viability under kanamycin – luminescence, BacTiterGlo, confirmation, counter-screen for streptokinase expression inhibitor project, dose response (AID 1900); type: functional, organism-based
[8] = target: T3, Mitochondrial peptide methionine sulfoxide reductase (Bos taurus, UniProt P54149); test: Absorbance-based biochemical high throughput dose response assay for activators of Methionine sulfoxide reductase A (MsrA).; type: functional
T3 sequence (P54149 whole entry): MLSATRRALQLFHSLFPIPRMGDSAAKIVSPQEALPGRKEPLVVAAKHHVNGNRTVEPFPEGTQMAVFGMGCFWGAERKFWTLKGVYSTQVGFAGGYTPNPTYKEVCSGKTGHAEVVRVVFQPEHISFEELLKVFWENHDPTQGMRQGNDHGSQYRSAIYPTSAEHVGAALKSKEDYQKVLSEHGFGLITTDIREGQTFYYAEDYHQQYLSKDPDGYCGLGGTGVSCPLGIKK

[9] = target: Dual specificity tyrosine-phosphorylation-regulated kinase 1A (Rattus norvegicus, UniProt Q63470); type: biochemical, Homo sapiens
BJ = test: cells; type: functional, cell-based; conditions: Homo sapiens
[10] = luciferase reporter signal suppression in cells – H4 neuroglioma cells, luminescence, dose response (AID 1990); type: functional, cell-based
[11] = alpha-synuclein stem-loop luciferase translation blockers – H4 neuroglioma cells, luminescence, confirmation (AID 1988); type: functional, cell-based
[12] = target: Protein-tyrosine kinase 2-beta (Homo sapiens, UniProt Q14289);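 note: potency of inhibitors of PYK2 kinase phosphorylation of poly-GT substrate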
[13] = target: T4, Mannose-6-phosphate isomerase (Homo sapiens, UniProt P34949); test: MPI enzyme activity inhibition – biochemical, fluorescence intensity, coupled assay, primary screen (AID 1209)
T4 sequence (P34949 whole entry): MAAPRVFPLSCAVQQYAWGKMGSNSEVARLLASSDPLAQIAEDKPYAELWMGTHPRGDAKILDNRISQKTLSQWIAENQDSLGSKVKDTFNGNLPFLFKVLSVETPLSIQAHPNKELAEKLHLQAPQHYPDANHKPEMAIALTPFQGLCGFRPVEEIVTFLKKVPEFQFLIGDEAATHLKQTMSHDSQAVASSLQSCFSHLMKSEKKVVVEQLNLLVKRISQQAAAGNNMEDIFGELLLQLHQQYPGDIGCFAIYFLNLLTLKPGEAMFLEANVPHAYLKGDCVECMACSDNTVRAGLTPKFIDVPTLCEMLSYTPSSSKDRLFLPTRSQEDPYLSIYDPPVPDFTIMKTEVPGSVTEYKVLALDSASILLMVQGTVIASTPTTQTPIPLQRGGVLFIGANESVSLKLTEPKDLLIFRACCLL

Streptococcus = test: GAS UMAA2166 growth inhibition – luminescence, BacTiterGlo, counter-screen for streptokinase expression inhibitor project, dose response (AID 1915); type: functional, organism-based;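 note: potency for reduction of bacterial viability or growth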
[14] = target: ATP-dependent molecular chaperone HSP82 (Candida albicans (strain WO-1) (Yeast), UniProt C4YTQ8); test: steroid-induced GRE reporter decrease in yeast – S. cerevisiae, luminescence, Hsp90 inhibitor project, dose response (AID 2400); type: functional, cell-based;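 note: beta-galactosidase luminescence from glucocorticoid response element reporter as proxy for Hsp90 function; inhibitor potency where signal loss means Hsp90 inhibition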
HEK293 = test: HEK293T cell viability loss, resazurin readout – resazurin fluorescence, cytotoxicity control for NF-kB activator project, SAR follow-up (AID 493251); type: functional, cell-based
cells = type: functional, cell-based
[15] = NIH3T3 cell viability loss – ATP luminescence, mouse fibroblasts, counter-screen, dose response (AID 2010); type: functional, cell-based;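 note: cells exposed to compound for about 90 hours before reading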
[16] = Trypanosoma cruzi growth suppression in host cells – NIH3T3 host cells, beta-gal luminescence, confirmation (AID 2044); type: functional, cell-based;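 note: intracellular parasites grown in NIH/3T3 mouse fibroblasts as host cells; luminescent beta-galactosidase reporter signal from transgenic T. cruzi replicating inside host cells; inhibitors lower the luminescence signal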
[17] = Counterscreen for AddAB inhibitors: absorbance-based bacterial cell-based high throughput dose response assay for inhibitors of bacterial viability. [Related pubchem assays (depositor defined):AID435030, AID449728, AID449731, AID488942, AID488955, AID488956]; type: functional
[18] = MIN6 cell viability loss – mouse insulinoma, cytotoxicity control, dose response (AID 2122); type: functional;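 note: confirmatory high-throughput counterscreen run to flag cytotoxic compounds; mouse MIN-6 beta cells carrying an insulin promoter eGFP reporter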
Jurkat = test: SAR Analysis of small molecule inhibitors of T-cell specific antigen receptor-induced NF-kB activation in a Jurkat cell line using a luminescence assay - Set 2. [Related pubchem assays (depositor defined):AID435003, AID435012, AID465]; type: functional, cell-based; conditions: Homo sapiens

Chain of Sphingosine 1-phosphate receptor 1 (P21453 whole entry, the tested form may be a part): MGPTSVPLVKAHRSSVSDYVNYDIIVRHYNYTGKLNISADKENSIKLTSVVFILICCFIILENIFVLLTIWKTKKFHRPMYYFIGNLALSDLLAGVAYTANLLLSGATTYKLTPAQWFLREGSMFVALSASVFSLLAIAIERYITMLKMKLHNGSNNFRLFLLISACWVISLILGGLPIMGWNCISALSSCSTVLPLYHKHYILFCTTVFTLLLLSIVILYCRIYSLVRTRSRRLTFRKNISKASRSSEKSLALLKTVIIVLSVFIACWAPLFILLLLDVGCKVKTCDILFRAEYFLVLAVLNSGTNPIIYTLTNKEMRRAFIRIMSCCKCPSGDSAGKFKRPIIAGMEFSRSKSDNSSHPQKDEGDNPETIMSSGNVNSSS
Chain of Protein-tyrosine kinase 2-beta (Q14289 whole entry): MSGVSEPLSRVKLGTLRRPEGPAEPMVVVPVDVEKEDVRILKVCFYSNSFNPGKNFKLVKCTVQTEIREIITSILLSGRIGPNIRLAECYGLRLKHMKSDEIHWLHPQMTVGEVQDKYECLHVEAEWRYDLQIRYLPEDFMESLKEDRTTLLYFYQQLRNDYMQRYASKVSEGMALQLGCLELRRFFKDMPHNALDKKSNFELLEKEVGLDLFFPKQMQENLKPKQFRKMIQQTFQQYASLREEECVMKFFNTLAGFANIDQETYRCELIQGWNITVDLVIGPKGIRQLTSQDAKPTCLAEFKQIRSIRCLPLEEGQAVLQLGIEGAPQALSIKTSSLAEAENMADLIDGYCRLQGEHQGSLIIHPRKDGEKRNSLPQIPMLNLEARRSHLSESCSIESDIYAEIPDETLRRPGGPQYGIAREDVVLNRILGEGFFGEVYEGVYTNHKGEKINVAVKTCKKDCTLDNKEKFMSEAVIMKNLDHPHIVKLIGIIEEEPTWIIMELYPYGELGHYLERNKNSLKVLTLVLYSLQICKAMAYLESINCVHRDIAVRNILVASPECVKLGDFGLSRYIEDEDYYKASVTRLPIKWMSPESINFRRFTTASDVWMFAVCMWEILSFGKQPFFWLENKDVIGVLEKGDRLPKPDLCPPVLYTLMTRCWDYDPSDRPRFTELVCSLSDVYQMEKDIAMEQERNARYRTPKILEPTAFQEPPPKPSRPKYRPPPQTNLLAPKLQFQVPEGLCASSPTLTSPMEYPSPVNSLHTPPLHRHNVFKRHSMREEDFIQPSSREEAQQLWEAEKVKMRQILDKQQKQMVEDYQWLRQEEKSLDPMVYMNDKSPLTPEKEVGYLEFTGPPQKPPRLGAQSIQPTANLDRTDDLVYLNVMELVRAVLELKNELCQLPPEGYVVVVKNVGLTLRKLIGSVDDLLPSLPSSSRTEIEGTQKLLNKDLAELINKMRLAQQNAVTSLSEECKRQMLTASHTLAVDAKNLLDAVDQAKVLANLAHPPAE
Chain of Nonstructural protein 1 (Q194T2 whole entry): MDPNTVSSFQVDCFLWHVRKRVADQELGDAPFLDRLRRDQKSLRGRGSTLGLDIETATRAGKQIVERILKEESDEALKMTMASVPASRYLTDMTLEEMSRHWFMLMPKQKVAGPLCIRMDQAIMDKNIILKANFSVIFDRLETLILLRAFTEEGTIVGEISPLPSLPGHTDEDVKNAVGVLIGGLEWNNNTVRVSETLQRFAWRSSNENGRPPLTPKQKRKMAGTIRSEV
Chain of ATP-dependent molecular chaperone HSP82 (C4YTQ8 whole entry): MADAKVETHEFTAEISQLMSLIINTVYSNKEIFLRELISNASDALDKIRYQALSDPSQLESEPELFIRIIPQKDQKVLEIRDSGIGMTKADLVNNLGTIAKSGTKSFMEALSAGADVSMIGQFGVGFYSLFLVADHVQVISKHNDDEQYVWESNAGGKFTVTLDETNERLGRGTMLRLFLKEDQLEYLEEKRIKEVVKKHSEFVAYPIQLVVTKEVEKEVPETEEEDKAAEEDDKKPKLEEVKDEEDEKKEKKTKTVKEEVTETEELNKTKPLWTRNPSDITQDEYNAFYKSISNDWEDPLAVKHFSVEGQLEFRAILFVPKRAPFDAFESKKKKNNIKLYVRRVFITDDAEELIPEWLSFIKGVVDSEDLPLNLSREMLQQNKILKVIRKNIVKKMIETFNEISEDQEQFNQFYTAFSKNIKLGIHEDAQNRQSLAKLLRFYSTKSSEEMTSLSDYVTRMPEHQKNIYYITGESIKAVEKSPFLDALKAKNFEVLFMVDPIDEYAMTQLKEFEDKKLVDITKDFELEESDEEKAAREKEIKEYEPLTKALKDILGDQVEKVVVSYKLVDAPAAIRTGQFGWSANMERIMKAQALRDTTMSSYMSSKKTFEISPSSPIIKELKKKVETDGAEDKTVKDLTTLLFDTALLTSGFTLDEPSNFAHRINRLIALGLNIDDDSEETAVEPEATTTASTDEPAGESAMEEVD

**Q.** What does the source list for `COc1cc(-c2ccc(Nc3ccccc3C(=O)O)c(OC)c2)ccc1Nc1ccccc1C(=O)O`?
**A.** IC50 [1]: 2.87 µM (not active); CC50 [2]: > 40 µM (active)

**Q.** What does the source list for `COC(CNC(=O)c1ccc2c3c(onc13)-c1ccccc1C2=O)OC`?
**A.** IC50 (Nonstructural protein 1): 82.4 µM (active); IC50 [3]: 15.1 µM (not active)

**Q.** Which EC50 [4] does the source give for `Cc1ccc2nc(/C(C#N)=C\c3ccc([N+](=O)[O-])o3)[nH]c2c1` here?
**A.** The EC50 was > 100 µM (inactive).

**Q.** What about the AC50 [5] of the same compound?
**A.** The AC50 was < 0.195 µM (active).

**Q.** With `Nc1ccc2c(c1)C(=O)C(=O)c1ccccc1-2` as the compound, how does the AC50 [6] read?
**A.** Its AC50 is 2.19 µM (active).

**Q.** And the EC50 [7]?
**A.** The EC50 was 0.46 µM (active).

**Q.** And the EC50 [8]?
**A.** Its EC50 is 9.09 µM (active).

**Q.** What about the AC50 [9] of the same compound?
**A.** Its AC50 is 0.547 µM (active).

**Q.** What about the EC50 (BJ) of the same compound?
**A.** The EC50 was 4.11 µM (active).

**Q.** And the EC50 [10]?
**A.** The EC50 was > 120 µM (not active).

**Q.** And the EC50 [11]?
**A.** Its EC50 is > 120 µM (not active).

**Q.** What about the IC50 [12] of the same compound?
**A.** Its IC50 is > 69.5 µM (not active).

**Q.** What about the IC50 [13] of the same compound?
**A.** Its IC50 is > 50 µM (not active).

**Q.** And the EC50 (Streptococcus)?
**A.** Its EC50 is 4.95 µM (active).

**Q.** For `CCCC(=O)NC(c1ccccc1OC)c1ccc2cccnc2c1O` (stereo not given), which EC50 [14] is on record?
**A.** Its EC50 is 25.9 µM (active).

**Q.** What about the IC50 (HEK293; Homo sapiens, HEK293) of the same compound?
**A.** The IC50 was 29.6 µM (inactive).

**Q.** What about the IC50 (HEK293; hek293) of the same compound?
**A.** The IC50 was 41.2 µM (inactive).

**Q.** What about the EC50 (cells) of the same compound?
**A.** The EC50 was > 350 µM (not active).

**Q.** What about the EC50 [15] of the same compound?
**A.** The EC50 was 1.55 µM (active).

**Q.** And the EC50 [16]?
**A.** The EC50 was 0.532 µM (active).

**Q.** What about the IC50 [17] of the same compound?
**A.** Its IC50 is > 119 µM (inactive).

**Q.** And the IC50 [18]?
**A.** The IC50 was 1.91 µM (active).

**Q.** And the IC50 (Jurkat)?
**A.** The IC50 was 5.16 µM (active).
